# Data from a melting point compilation (Tetko et al.; mined from patent text by program, amines drawn as free bases though some values may be those of a salt).
row,melting point,SMILES
1,252 to 255 °C,COc1cccc(NC(=O)C(N)=O)c1C(N)=O
2,128 to 130 °C,O=C(CCCCN1CCCCC1)c1ccc2c(c1)Sc1cc(C(=O)CCCCN3CCCCC3)ccc1O2
3,117 to 118 °C,Cc1nc(C)c(C(O)=C(C#N)c2nn(-c3ccccc3)nc2C)s1
4,158 to 160 °C,Cc1cccc2c1C=Cc1ccccc1C2Cl (configuration not stated)
5,193 to 195 °C,CC1Cc2cc3c(cc2C(c2ccc(NC=O)cc2)=NN1C=O)OCO3 (configuration not stated)
6,130 to 131 °C,CC(C)c1nn(-c2ccc([N+](=O)[O-])cn2)cc1CCCO
7,108 to 110 °C,Cc1cc(-c2cc3cc(OCCNC[C@H](O)c4cccc(Cl)c4)ccc3o2)no1
8,153 to 154 °C,COC(=O)c1nc(-c2ccc(Cl)cc2)cc(N(C)C)c1N
9,97 to 100 °C,CC(=O)c1cccc(C)c1NC(=O)CBr
10,168 °C,N#Cc1cc(F)c(-n2c(=O)cc(C(F)(F)F)[nH]c2=O)cc1Oc1cccc2c(O)cccc12
11,306 to 308 °C,CC(C)(C)Nc1c(NCc2ccc(C(F)(F)F)cc2)c(=O)c1=O
12,174 to 176 °C,CC(C)CCOCc1cc(N2N=C(C(N)=O)NC2c2ccccc2)ccc1Cl (configuration not stated)
13,139 to 140 °C,CC(=O)OC1CSC(Oc2ccc(C)nc2C)C(OC(C)=O)C1OC(C)=O (configuration not stated)
14,101 to 102 °C,Cc1nnc(N2N=C(c3ccc([N+](=O)[O-])cc3)c3cc4c(cc3CC2C)OCO4)s1 (configuration not stated)
15,147 to 148 °C,COc1cc2c(cc1OC)C(Oc1ccccc1C#N)CN(C)C2 (configuration not stated)
16,225 °C,Cc1cc(-c2ccc(C(F)(F)F)cc2)nc(-c2cccc(-c3ccc(S(N)(=O)=O)s3)c2)n1
17,162 to 164 °C,N#Cc1ccc(NCc2cc3c(cc2O)CCCO3)cc1
18,201 to 204 °C,NS(=O)(=O)c1cc2c3c(cc([N+](=O)[O-])c2cc1[N+](=O)[O-])N(C(=O)C(F)(F)F)CC3CCl (configuration not stated)
19,133 °C,CCCCCCOc1ccc(-c2ncc(C#N)c(Cl)n2)cc1
20,168 to 170 °C,Cc1oc(=O)oc1COC(=O)c1oc2cccc(O)c2c1C
21,225 to 231 °C,O=C1COc2cc3[nH]c(C(=O)N4CCC(Cc5ccccc5)CC4)cc3cc2N1
22,45 to 48 °C,COCCOc1nc(C)nc(N2CCC(c3ccc(F)cc3)CC2)c1[N+](=O)[O-]
23,202 to 203 °C,Cc1c[nH]c(-c2ccc(OCC(O)CNC(C)(C)C)cc2)n1 (configuration not stated)

row,melting point,SMILES
1,158 to 162 °C,O=C1C=C(c2ccc(O)cc2)C(=O)N1
2,150 to 151 °C,O=C(O)c1cc2cc(Cl)ccc2nc1NC(COCc1ccccc1)C(=O)Nc1ccccc1 (configuration not stated)
3,141 to 143 °C,CN(C)CC1CCCN(c2cc3ccccc3c(=O)[nH]2)C1 (configuration not stated)
4,200 to 201 °C,CNC1=NS(=O)(=O)N=C1NCCSCc1csc(N)n1
5,104 to 106 °C,COc1nc(C)c(C)nc1N(C)C(=O)N1CCN(c2cc(F)cc(F)c2)CC1
6,116 °C,CN(C#N)c1ccc(OCc2ccccc2)cc1
7,50 °C,Brc1cccc(-c2ccccc2)n1
8,84 to 85 °C,CC(CC(=O)O)CC(=O)CCCCCCCCCCC(=O)O (configuration not stated)
9,190 to 192 °C,CCOC(=O)c1ncn(-c2cc(C(=O)OC)c([N+](=O)[O-])cc2C(F)(F)F)n1
10,104 to 106 °C,CCN(C(=O)C#Cc1ccccc1)c1ccccc1C1CCCCN1C (configuration not stated)
11,168 °C,CC(=S)NC[C@H]1CN(c2ccc(N3CCN(C)C3=O)c(F)c2)C(=O)O1
12,203 to 205 °C,Cc1c(NC(=O)N2CCC(c3ccc(Cl)cc3)CC2)ccc2cc(CN3CCCC3)cnc12
13,75 to 76 °C,CC(NC(=O)Cc1cc(F)cc(F)c1)C(=O)NC1C(=O)N(CCc2ccccc2)Cc2ccccc21 (configuration not stated)
14,293 to 295 °C,COc1ccc(Nc2cc(-c3ccccc3)nc(NC3CCC(O)CC3)n2)cc1Cl (configuration not stated)
15,174 °C,CC(C)[C@@H](C(N)=O)C(=O)O
16,211 to 212 °C,CCOC(=O)c1cccc(NC(=O)Nc2ccc(-n3nc(C(F)(F)F)cc3C(F)(F)F)cc2)c1
17,138 °C,COC(=O)C(c1ccccc1)N1CCC(c2ccc(NC(=O)c3ccccc3-c3ccc(C(F)(F)F)cc3)cc2)CC1 (configuration not stated)
18,105 °C,CC(C)CCCC(C)C1CC=C2C3=C(CCC21C)C1(C)CC=CCC1CC3 (configuration not stated)
19,124 °C,Cc1ccc(C2(O)CCC(=O)N2C)cc1S(N)(=O)=O (configuration not stated)
20,196 to 198 °C,Nc1c(O)cc2c(c1[N+](=O)[O-])CCC2
21,65 to 70 °C,COC1(OCc2ccccc2)C=C2C(=CC1)CCN(CCO)C2C1(c2ccccc2Cl)CC1 (configuration not stated)
22,214 °C,CCCCN1CCn2c1nc(C(=O)NCc1ccc(F)cc1-n1cnc(C)n1)c(O)c2=O
23,90 to 92 °C,COc1ccc(C(CC#N)CC#N)cc1O

row,melting point,SMILES
1,114 to 116 °C,COC(=O)C(C(=O)OC)C(Cc1cc(Cl)ccc1N)c1ccc(OC)cc1 (configuration not stated)
2,120 to 122 °C,CC(=C\c1ccccc1)/C=C(\C)C(=O)NCCCCCC(=O)NO
3,144 to 145 °C,CC(Sc1nc2ccccc2s1)C(N)=O (configuration not stated)
4,137 °C,COc1ccc(C(=O)/C=C/c2ccc3c(c2)OCO3)c(OC)c1
5,317 to 319 °C,NNC(=S)c1cc(F)c2ncc(C(=O)NCc3ccc(Cl)cc3)c(O)c2c1
6,149 to 150 °C,COc1ccc2c(c1)C(=O)c1c-2c(Cl)nc2ccc(F)cc12
7,93 to 105 °C,CNCCNCc1ccc(-c2cc3ncnc(Nc4ccc5[nH]ccc5c4)c3s2)cc1
8,138 to 139 °C,CCOC(=O)/C=C/c1cn(Cc2ccc(OCc3nc(-c4ccco4)oc3C)cc2)nc1OCc1ccc(OCc2nc(-c3ccco3)oc2C)cc1
9,163 to 165 °C,O=C(Nc1ccc(Cl)cc1)NS(=O)(=O)c1ccc2c(c1)CCCC2
10,170 °C,Cn1nc(-c2cc(C=NOCC(=O)O)c(Cl)cc2F)c(Cl)c1C(F)(F)F
11,256 to 258 °C,CCc1nc(N)nc(N)c1-c1ccc(N(C)C)c([N+](=O)[O-])c1
12,207 to 208 °C,COc1ccnc(C(=O)c2[nH]c3cc(Cl)ccc3c2NC(C)=O)c1
13,110 to 112 °C,CCOC(=O)Cc1csc(NC(=O)c2ccc(F)cc2)n1
14,54 to 55 °C,C(=C(c1ccccc1)c1ccccc1)C1CCN(CCCCCCCCc2cccnc2)CC1
15,147 to 148 °C,COc1ccc(C(C)(c2ccc(OC)cc2)c2ccc(N(c3ccc(C)cc3)c3ccc(C)cc3)cc2)cc1
16,61 to 62 °C,CCC1Cc2ccc([N+](=O)[O-])cc2C=N1 (configuration not stated)
17,215 to 216 °C,CC(C)(C)c1ccc(C(O)(c2ccc(C(C)(C)C)cc2)c2ncc[nH]2)cc1
18,128 to 131 °C,CC(C)(C)c1cc(OCCCCCCc2nnn[nH]2)cc(C(C)(C)C)c1O
19,> 300 °C,CCNc1ccc2c(c1)CN(c1c(F)cc3c(=O)c(C(=O)O)cn4c3c1OCC4C)C2 (configuration not stated)
20,184 to 186 °C,CCOC(=O)N1CCN(C2Cc3ccccc3Sc3cc(Cl)c(Cl)cc32)CC1 (configuration not stated)
21,170 to 174 °C,CCCc1c(N)c(C(N)=O)nn1C
22,91 to 93 °C,CC(=O)n1ncc2c(OCc3ccccc3)cc(C)cc21
23,221 °C,CC(C)(CO)NS(=O)(=O)c1cccc(-c2cc(-c3nc(-c4ccc(C(F)(F)F)cc4)cc(C(F)(F)F)n3)ccn2)c1

row,melting point,SMILES
1,148 to 150 °C,Cc1cc(NC(=O)C2=C(O)c3ccccc3N(c3ccccc3)C2)no1
2,123 to 124 °C,COP(=O)(OC)OCN1C(=O)NC(c2ccccc2)(c2ccccc2)C1=O
3,162 °C,CCCCCCc1ccc(C(=O)Oc2ccc(C(=O)O)cc2)cc1
4,147 to 150 °C,O=C(O)[C@H](Cc1ccccc1)N[C@@H](Cc1c[nH]c2ccccc12)C(=O)OCc1ccccc1
5,170 °C,CCc1cccc(CC)c1NC(=O)C1c2ccccc2COc2ccc(C(C)C)cc21 (configuration not stated)
6,236 °C,Cc1ccc(-n2c(-c3ccc(Br)cc3)nc3c4ccccc4c4ccccc4c32)cc1
7,153 to 156 °C,COc1ccc([C@@H]2Sc3ccccc3N(CCN(C)C)C(=O)[C@@H]2OC(=O)c2ccc([N+](=O)[O-])cc2Cl)cc1
8,155 to 156 °C,CC(C)C[C@@H](CC(=O)O)NC(=O)[C@@H](CS)C(F)(F)F
9,245 to 246 °C,Cc1cc2c(=O)c(-c3nnnn3C)cn(C)c2cc1C
10,80.5 to 82.5 °C,CC(C)c1cn(C(C)(C)C(=O)N(C)C)nc1-c1ccccc1
11,161 to 163 °C,COc1cc(C=O)c2oc(-c3ccc(OC)c(F)c3)cc2c1
12,127 to 129 °C,COc1cccc(Cc2cc3cccc(-c4cccc(C(=O)O)c4)c3o2)c1
13,79 to 81 °C,C/C(=N\OC(=O)[C@@H]1CCCN(C(=O)OC(C)(C)C)C1)[C@H]1CC[C@H]2[C@@H]3CCC4=CC(=O)CC[C@]4(C)[C@H]3CC[C@]12C
14,64 to 74 °C,COCC1COC(Cn2cncn2)(c2ccc(Cl)cc2Cl)O1 (configuration not stated)
15,191 to 192 °C,CC(C)n1nc(-c2c(NCc3ccccc3)nc(N)nc2-c2ccc(F)cc2)ccc1=O
16,167 to 169 °C,COc1ccc(CCCCOc2cc(-c3nc4cc(C(=O)O)ccc4[nH]3)ccc2OC)cc1
17,187 °C,CCN(c1ccc(N2CCN(c3ccc(OC)cc3)CC2)cc1)c1nnc(C)s1
18,88.5 to 90.5 °C,CSc1ccc2ncccc2c1N
19,134 to 135 °C,Fc1ccc2c(c1)nc(/C=C/c1ccccc1)n2-c1ccccn1
20,234 to 235 °C,CC(C)(C)S(=O)(=O)c1cccc(-c2nc(=O)c3ccccc3s2)n1
21,165 to 166 °C,Cc1c(-c2ccccc2)c(N2CC[C@H](N(C)C)C2)c2oc(/C=C/c3ccccc3)nc2c1C#N

row,SMILES,melting point
1,COC(=C[N+](=O)[O-])NCc1cccnc1,129 to 130 °C
2,CCCC12COC(C=O)(OC1)OC2,117 to 118 °C
3,CCCCCCN(CCCCCC)CC1CCN(C(=O)Oc2ccc(Oc3ccccc3)cc2)CC1,46 to 47 °C
4,CCOC(=O)C1C(=O)NC(=O)C12C(=O)N(Cc1ccc(Cl)c(Cl)c1)c1ccccc12 (configuration not stated),60 to 85 °C
5,CC1Cc2ccc(Br)cc2C(c2ccc([N+](=O)[O-])cc2)=NN1 (configuration not stated),125 to 130 °C
6,CCOC(=O)NC(C(=O)OC)=C1CN=C(c2ccccc2F)c2cc(Cl)ccc2N1,188 to 191 °C
7,CC(C)C(NC(=O)c1ccc(C(=O)NCC(=O)O)cc1)C(=O)N1CCCC1C(=O)NC(C(=O)C(F)(F)F)C(C)C (mixture of isomers),99 to 103 °C
